The text below walks through data of patent publication US4551547A, “Biocidal 2-aryl-1, 3-cyclopentanedione enol ester compounds” (Union Carbide Corporation, priority 1983, dated 1985).

Values after ≈ are worked out from the molar mass of the structure shown.

Experiment [1] concerns egg of the two-spotted mite. Briefly: Mite Ovicide Test (eggs). More on the design: key to Miticidal, Egg: A: Excellent Control; B: Partial Control; No Control. The note with it: for Miticidal, Egg: Table II, unhatched eggs after four days. Type of experiment: in vivo, Tetranychus urticae (Koch). The procedure, abridged:
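Tetranychus urticae eggs laid over 48 h on bean plants (adults then killed with tetraethyl pyrophosphate) were sprayed to run-off with aqueous acetone/emulsifier suspensions at graded ppm; solvent-sprayed controls. After 4 days at 80±5 °F, 50±5% RH, hatched versus unhatched eggs counted microscopically; ppm for 50% egg kill reported.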

The subject of another experiment is Bean. Briefly: Post-emergent herbicidal test, bean. The settings on record: 2500 parts per million, after ten days; for Post-emergent Herbicidal, Bean: Table II. More on the design: key: 1: no perceptible injury; 2: intermediate degrees of injury; 3: intermediate degrees of injury; 4: intermediate degrees of injury; 5: the plant was dead. Type of experiment: in vivo. The procedure, abridged:
(§1)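 Compounds dispersed in acetone/surfactant/water and sprayed at 2500 ppm onto foliage of healthy plants. Plants kept in greenhouse; foliar injury scored visually after ten days on a 1 (no injury) to 5 (dead) scale.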

The subject of another experiment is Tomato. Briefly: Post-emergent herbicidal test, tomato. Also on record: key: 1: no perceptible injury; 2: intermediate degrees of injury; 3: intermediate degrees of injury; 4: intermediate degrees of injury; 5: the plant was dead. The note with it: 2500 parts per million, after ten days; for Post-emergent Herbicidal, Tomato: Table II. The experiment is classed as in vivo. The procedure, abridged: as §1

In a further experiment the test system is Soybean. Briefly: Post-emergent herbicidal test, soybean. The experiment is classed as in vivo. Also on record: key: 1: no perceptible injury; 2: intermediate degrees of injury; 3: intermediate degrees of injury; 4: intermediate degrees of injury; 5: the plant was dead. The settings on record: 2500 parts per million, after ten days; for Post-emergent Herbicidal, Soybean: Table II. The procedure, abridged: as §1

For another experiment, the system named is Crabgrass. Briefly: Preliminary herbicide seed germination test (pre-emergent), crabgrass. Type of experiment: in vivo, Digitaria sanguinalis. More on the design: key: 5: no seedling emerged; 4: few seedlings emerged and/or very severe stunting; 3: moderate reduction in stand and/or moderate stunting.; 2: very slight reduction in stand and/or slight stunting; 1: no injury, seedlings appear no different with respect to stand or growth than untreated controls. The note with it: ten to twelve days after application. The essentials:
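Crabgrass (Digitaria sanguinalis) seed-soil mixtures in pots were drenched about 2 h after planting with 25 mL of compound suspension, diluted in water from an acetone/alkylphenoxyethanol-emulsified stock. Each compound was tested at the same ppm concentration. Solvent-emulsifier blanks served as controls; effects were rated visually.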

For experiment [2], the system named is Red root pigweed (Amaranthus). Briefly: Preliminary herbicide seed germination test (pre-emergent), red root pigweed. Also on record: key: 5: no seedling emerged; 4: few seedlings emerged and/or very severe stunting; 3: moderate reduction in stand and/or moderate stunting.; 2: very slight reduction in stand and/or slight stunting; 1: no injury, seedlings appear no different with respect to stand or growth than untreated controls. Type of experiment: in vivo, Amaranthus retroflexus. The note with it: ten to twelve days after application. The essentials: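 Pre-emergent pot test in the greenhouse with Amaranthus retroflexus seed mixed into soil. About 2 h after planting, 25 mL of aqueous formulation (diluted from a 0.5% w/w acetone/surfactant stock) was applied per pot, with concentration given in ppm. Solvent/emulsifier-only pots served as controls, and effects were scored on a rating scale.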

For the next experiment, the system named is Mustard. Briefly: Preliminary herbicide seed germination test (pre-emergent), mustard. Type of experiment: in vivo, Brassica pincea var. foliosa (Florida broadleaf). More on the design: key: 5: no seedling emerged; 4: few seedlings emerged and/or very severe stunting; 3: moderate reduction in stand and/or moderate stunting.; 2: very slight reduction in stand and/or slight stunting; 1: no injury, seedlings appear no different with respect to stand or growth than untreated controls. The note with it: ten to twelve days after application. The procedure, abridged:
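Stock suspension (0.5% w/w compound in acetone with alkylphenoxyethanol surfactant, emulsified in water) diluted with water to test concentration; 25 mL applied pre-emergence to greenhouse pots of mustard seed–soil mixture ~2 h after planting. Solvent/emulsifier-only controls; injury rated visually.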

As for `Cc1ccccc1C1=C(OC(=O)C(C)C)C2CCCCC2C1=O` (stereo not shown) [Compound 20], the “Miticidal, Egg” value in experiment [1] is “A”. In addition, the “Post-emergent Herbicidal, Bean” value with Bean is 3. The “Post-emergent Herbicidal, Tomato” value with Tomato is listed as 1. Also, the “Post-emergent Herbicidal, Soybean” value with Soybean stood at 3. Further, in the experiment on Crabgrass (Table II), the “Pre-emergent Herbicidal, Crabgrass” value turned out to be 3. The “Pre-emergent Herbicidal, Amaranthus” value in experiment [2] (Table II) is recorded as 3. Also, the “Pre-emergent Herbicidal, Mustard” value with Mustard (Table II) is given as 3.
For the compound `CCCCCCCCCCCCCCCC(=O)OC1=C(c2cc(C)ccc2C)C(=O)C(C)C1` (stereo not shown) [Compound 18], the “Miticidal, Egg” value in experiment [1] is “A”. Besides, the “Post-emergent Herbicidal, Bean” value in the experiment on Bean is reported as 2. Moreover, in the experiment on Tomato, the “Post-emergent Herbicidal, Tomato” value is reported as 2. In addition, the “Post-emergent Herbicidal, Soybean” value with Soybean turned out to be 2. The “Pre-emergent Herbicidal, Crabgrass” value in the experiment on Crabgrass (Table II) was determined as 1. The “Pre-emergent Herbicidal, Amaranthus” value in experiment [2] (Table II) turned out to be 1. For the same compound, in the experiment on Mustard (Table II), the “Pre-emergent Herbicidal, Mustard” value came to 1.
As for `CCCCC(CC)C(=O)OC1=C(c2ccc(C)cc2C)C(=O)CC1` (stereo not shown) [Compound 9, 3-(2-ethylhexanoyloxy)-2-(2', 4'-dimethylphenyl)-2-cyclopentenone], the “Miticidal, Egg” value in experiment [1] is recorded as “A”. For the same compound, the “Post-emergent Herbicidal, Bean” value in the experiment with Bean worked out at 2. Besides, the “Post-emergent Herbicidal, Tomato” value in the experiment with Tomato is reported as 1. Besides, in the experiment with Soybean, the “Post-emergent Herbicidal, Soybean” value was determined as 1. In addition, the “Pre-emergent Herbicidal, Crabgrass” value with Crabgrass (Table II) came out at 4. Further, in experiment [2] (Table II), the “Pre-emergent Herbicidal, Amaranthus” value was 2. Moreover, the “Pre-emergent Herbicidal, Mustard” value with Mustard (Table II) is listed as 2.
For the compound `CC(=O)OC1=C(c2ccccc2C)C(=O)C2CCCCC12` (stereo not shown) [Compound 19, 3-acetoxy-2-(2'-methylphenyl)-4,5,6,7,8,9-hexahydro-2-indenone], the “Miticidal, Egg” value in experiment [1] is “A”. The “Post-emergent Herbicidal, Bean” value with Bean stood at 3. Also, the “Post-emergent Herbicidal, Tomato” value with Tomato was determined as 2. Further, the “Post-emergent Herbicidal, Soybean” value with Soybean is 3. For the same compound, the “Pre-emergent Herbicidal, Crabgrass” value in the experiment on Crabgrass (Table II) is 3. Moreover, in experiment [2] (Table II), the “Pre-emergent Herbicidal, Amaranthus” value is 4. The “Pre-emergent Herbicidal, Mustard” value in the experiment with Mustard (Table II) is 3.
Take `Cc1ccc(C2=C(OC(=O)c3ccccc3)C3CCCCC3C2=O)c(C)c1` (stereo not shown) [Compound 27, 3-benzoyloxy-2-(2',4'-dimethylphenyl)-4,5,6,7,8,9-hexahydro-2-indenone]: the “Miticidal, Egg” value in experiment [1] was “A”. The “Post-emergent Herbicidal, Bean” value in the experiment with Bean came out at 1. The “Post-emergent Herbicidal, Tomato” value in the experiment with Tomato turned out to be 2. Besides, in the experiment on Soybean, the “Post-emergent Herbicidal, Soybean” value was 2. Moreover, the “Pre-emergent Herbicidal, Crabgrass” value with Crabgrass (Table II) was found to be 5. Also, the “Pre-emergent Herbicidal, Amaranthus” value in experiment [2] (Table II) came to 4. In the experiment on Mustard (Table II), the “Pre-emergent Herbicidal, Mustard” value turned out to be 5.
Turning to `CCCCCCCCCC(=O)OC1=C(c2cc(C)ccc2C)C(=O)C2CCCCC12` (stereo not shown) [Compound 32], in experiment [1], the “Miticidal, Egg” value is reported as “A”. Besides, in the experiment with Bean, the “Post-emergent Herbicidal, Bean” value amounted to 1. The “Post-emergent Herbicidal, Tomato” value in the experiment on Tomato was 1. For the same compound, the “Post-emergent Herbicidal, Soybean” value in the experiment on Soybean came out at 1. Further, the “Pre-emergent Herbicidal, Crabgrass” value in the experiment with Crabgrass (Table II) turned out to be 1. Moreover, the “Pre-emergent Herbicidal, Amaranthus” value in experiment [2] (Table II) turned out to be 1. For the same compound, in the experiment on Mustard (Table II), the “Pre-emergent Herbicidal, Mustard” value was 1.
For `CCCCC(CC)C(=O)OC1=C(c2ccccc2C)C(=O)C2CCCCC12` (stereo not shown) [drawing 22], the LC50 in experiment [1] (Tetranychus urticae, Table III, ppm required for a 50 percent kill of eggs, read-out: Miticidal LD50, Egg) was 5 mg/L (≈ 13.6 µM). The “Post Emergent Herbicidal, Bean” value in the experiment with Bean (Table III) is 1. Further, the “Post Emergent Herbicidal, Tomato” value in the experiment on Tomato (Table III) is reported as 1. Besides, the “Post Emergent Herbicidal, Soybean” value in the experiment on Soybean (Table III) is listed as 2. In the experiment on Crabgrass (Table III), the “Pre-emergent Herbicidal, Crabgrass” value is on record as 2. Moreover, the “Pre-emergent Herbicidal, Amaranthus” value in experiment [2] (Table III) came out at 2. For the same compound, the “Pre-emergent Herbicidal, Mustard” value in the experiment on Mustard (Table III) came out at 1.
